In PubChem BioAssay AID1259407 (Chemical Carcinogenesis Research Information System (CCRIS), 2018):
The source made the active and inactive calls. The rule behind the calls is not given here.

Test system: CCRIS mutagenicity, Ames/micronucleus/aberration tests
Experiment: CCRIS mutagenicity studies

## C=CC(=O)O
Test System: AMES SALMONELLA TYPHIMURIUM, Strain/Indicator: TA97, Metabolic Activation: NONE, Method: PREINCUBATION
  mutagenic call: inactive; negative
Test System: AMES SALMONELLA TYPHIMURIUM, Strain/Indicator: TA97, Metabolic Activation: S-9, Method: PREINCUBATION
  mutagenic call: inactive; negative
Test System: AMES SALMONELLA TYPHIMURIUM, Strain/Indicator: TA98, Metabolic Activation: HAMSTER, LIVER, S-9, AROCLOR 1254 (10%), Method: PREINCUBATION
  mutagenic call: inactive; negative
Test System: AMES SALMONELLA TYPHIMURIUM, Strain/Indicator: TA98, Metabolic Activation: HAMSTER, LIVER, S-9, AROCLOR 1254, Method: STANDARD PLATE
  mutagenic call: inactive; negative
Test System: AMES SALMONELLA TYPHIMURIUM, Strain/Indicator: TA98, Metabolic Activation: NONE, Method: PREINCUBATION
  mutagenic call: inactive; negative
Test System: AMES SALMONELLA TYPHIMURIUM, Strain/Indicator: TA98, Metabolic Activation: NONE, Method: STANDARD PLATE
  mutagenic call: inactive; negative
Test System: AMES SALMONELLA TYPHIMURIUM, Strain/Indicator: TA98, Metabolic Activation: RAT LIVER S-9, PHENOBARBITAL AND BETA-NAPHTHOFLAVONE, Method: PREINCUBATION
  mutagenic call: inactive; negative
Test System: AMES SALMONELLA TYPHIMURIUM, Strain/Indicator: TA98, Metabolic Activation: RAT, LIVER, S-9, AROCLOR 1254 (10%), Method: PREINCUBATION
  mutagenic call: inactive; negative
Test System: AMES SALMONELLA TYPHIMURIUM, Strain/Indicator: TA98, Metabolic Activation: RAT, LIVER, S-9, AROCLOR 1254, Method: STANDARD PLATE
  mutagenic call: inactive; negative
Test System: AMES SALMONELLA TYPHIMURIUM, Strain/Indicator: TA98, Metabolic Activation: RAT, LIVER, S-9, AROCLOR, Method: STANDARD PLATE
  mutagenic call: inactive; negative
Test System: AMES SALMONELLA TYPHIMURIUM, Strain/Indicator: TA100, Metabolic Activation: HAMSTER, LIVER, S-9, AROCLOR 1254 (10%), Method: PREINCUBATION
  mutagenic call: inactive; negative
Test System: AMES SALMONELLA TYPHIMURIUM, Strain/Indicator: TA100, Metabolic Activation: HAMSTER, LIVER, S-9, AROCLOR 1254, Method: STANDARD PLATE
  mutagenic call: inactive; negative
Test System: AMES SALMONELLA TYPHIMURIUM, Strain/Indicator: TA100, Metabolic Activation: NONE, Method: PREINCUBATION
  mutagenic call: inactive; negative
Test System: AMES SALMONELLA TYPHIMURIUM, Strain/Indicator: TA100, Metabolic Activation: NONE, Method: STANDARD PLATE
  mutagenic call: inactive; negative
Test System: AMES SALMONELLA TYPHIMURIUM, Strain/Indicator: TA100, Metabolic Activation: RAT LIVER S-9, PHENOBARBITAL AND BETA-NAPHTHOFLAVONE, Method: PREINCUBATION
  mutagenic call: inactive; negative
Test System: AMES SALMONELLA TYPHIMURIUM, Strain/Indicator: TA100, Metabolic Activation: RAT, LIVER, S-9, AROCLOR 1254 (10%), Method: PREINCUBATION
  mutagenic call: inactive; negative
Test System: AMES SALMONELLA TYPHIMURIUM, Strain/Indicator: TA100, Metabolic Activation: RAT, LIVER, S-9, AROCLOR 1254, Method: STANDARD PLATE
  mutagenic call: inactive; negative
Test System: AMES SALMONELLA TYPHIMURIUM, Strain/Indicator: TA100, Metabolic Activation: RAT, LIVER, S-9, AROCLOR, Method: STANDARD PLATE
  mutagenic call: inactive; negative
Test System: AMES SALMONELLA TYPHIMURIUM, Strain/Indicator: TA102, Metabolic Activation: NONE, Method: PREINCUBATION
  mutagenic call: inactive; negative
Test System: AMES SALMONELLA TYPHIMURIUM, Strain/Indicator: TA102, Metabolic Activation: RAT LIVER S-9, PHENOBARBITAL AND BETA-NAPHTHOFLAVONE, Method: PREINCUBATION
  mutagenic call: inactive; negative
Test System: AMES SALMONELLA TYPHIMURIUM, Strain/Indicator: TA102, Metabolic Activation: S-9, Method: PREINCUBATION
  mutagenic call: inactive; negative
Test System: AMES SALMONELLA TYPHIMURIUM, Strain/Indicator: TA104, Metabolic Activation: NONE, Method: PREINCUBATION
  mutagenic call: inactive; negative
Test System: AMES SALMONELLA TYPHIMURIUM, Strain/Indicator: TA104, Metabolic Activation: RAT LIVER S-9, PHENOBARBITAL AND BETA-NAPHTHOFLAVONE, Method: PREINCUBATION
  mutagenic call: inactive; negative
Test System: AMES SALMONELLA TYPHIMURIUM, Strain/Indicator: TA1535, Metabolic Activation: HAMSTER, LIVER, S-9, AROCLOR 1254 (10%), Method: PREINCUBATION
  mutagenic call: inactive; negative
Test System: AMES SALMONELLA TYPHIMURIUM, Strain/Indicator: TA1535, Metabolic Activation: HAMSTER, LIVER, S-9, AROCLOR 1254, Method: STANDARD PLATE
  mutagenic call: inactive; negative
Test System: AMES SALMONELLA TYPHIMURIUM, Strain/Indicator: TA1535, Metabolic Activation: NONE, Method: PREINCUBATION
  mutagenic call: inactive; negative
Test System: AMES SALMONELLA TYPHIMURIUM, Strain/Indicator: TA1535, Metabolic Activation: NONE, Method: STANDARD PLATE
  mutagenic call: inactive; negative
Test System: AMES SALMONELLA TYPHIMURIUM, Strain/Indicator: TA1535, Metabolic Activation: RAT LIVER S-9, PHENOBARBITAL AND BETA-NAPHTHOFLAVONE, Method: PREINCUBATION
  mutagenic call: inactive; negative
Test System: AMES SALMONELLA TYPHIMURIUM, Strain/Indicator: TA1535, Metabolic Activation: RAT, LIVER, S-9, AROCLOR 1254 (10%), Method: PREINCUBATION
  mutagenic call: inactive; negative
Test System: AMES SALMONELLA TYPHIMURIUM, Strain/Indicator: TA1535, Metabolic Activation: RAT, LIVER, S-9, AROCLOR 1254, Method: STANDARD PLATE
  mutagenic call: inactive; negative
Test System: AMES SALMONELLA TYPHIMURIUM, Strain/Indicator: TA1535, Metabolic Activation: RAT, LIVER, S-9, AROCLOR, Method: STANDARD PLATE
  mutagenic call: inactive; negative
Test System: AMES SALMONELLA TYPHIMURIUM, Strain/Indicator: TA1537, Metabolic Activation: HAMSTER, LIVER, S-9, AROCLOR 1254 (10%), Method: PREINCUBATION
  mutagenic call: inactive; negative
Test System: AMES SALMONELLA TYPHIMURIUM, Strain/Indicator: TA1537, Metabolic Activation: HAMSTER, LIVER, S-9, AROCLOR 1254, Method: STANDARD PLATE
  mutagenic call: inactive; negative
Test System: AMES SALMONELLA TYPHIMURIUM, Strain/Indicator: TA1537, Metabolic Activation: NONE, Method: PREINCUBATION
  mutagenic call: inactive; negative
Test System: AMES SALMONELLA TYPHIMURIUM, Strain/Indicator: TA1537, Metabolic Activation: NONE, Method: STANDARD PLATE
  mutagenic call: inactive; negative
Test System: AMES SALMONELLA TYPHIMURIUM, Strain/Indicator: TA1537, Metabolic Activation: RAT LIVER S-9, PHENOBARBITAL AND BETA-NAPHTHOFLAVONE, Method: PREINCUBATION
  mutagenic call: inactive; negative
Test System: AMES SALMONELLA TYPHIMURIUM, Strain/Indicator: TA1537, Metabolic Activation: RAT, LIVER, S-9, AROCLOR 1254 (10%), Method: PREINCUBATION
  mutagenic call: inactive; negative
Test System: AMES SALMONELLA TYPHIMURIUM, Strain/Indicator: TA1537, Metabolic Activation: RAT, LIVER, S-9, AROCLOR 1254, Method: STANDARD PLATE
  mutagenic call: inactive; negative
Test System: AMES SALMONELLA TYPHIMURIUM, Strain/Indicator: TA1537, Metabolic Activation: RAT, LIVER, S-9, AROCLOR, Method: STANDARD PLATE
  mutagenic call: inactive; negative
Test System: AMES SALMONELLA TYPHIMURIUM, Strain/Indicator: TA1538, Metabolic Activation: HAMSTER, LIVER, S-9, AROCLOR 1254, Method: STANDARD PLATE
  mutagenic call: inactive; negative
Test System: AMES SALMONELLA TYPHIMURIUM, Strain/Indicator: TA1538, Metabolic Activation: NONE, Method: STANDARD PLATE
  mutagenic call: inactive; negative
Test System: AMES SALMONELLA TYPHIMURIUM, Strain/Indicator: TA1538, Metabolic Activation: RAT, LIVER, S-9, AROCLOR 1254, Method: STANDARD PLATE
  mutagenic call: inactive; negative
Test System: AMES SALMONELLA TYPHIMURIUM, Strain/Indicator: TA1538, Metabolic Activation: RAT, LIVER, S-9, AROCLOR, Method: STANDARD PLATE
  mutagenic call: inactive; negative
Test System: CHINESE HAMSTER OVARY, Strain/Indicator: CHO-K1-BH4 (HGPRT), Metabolic Activation: NONE
  mutagenic call: inactive; negative
Test System: CHINESE HAMSTER OVARY, Strain/Indicator: CHO-K1-BH4 (HGPRT), Metabolic Activation: RAT, LIVER, S-9, AROCLOR 1254
  mutagenic call: inactive; negative
Test System: E.COLI, Strain/Indicator: WP2UVRA/PKM101, Metabolic Activation: NONE, Method: PREINCUBATION
  mutagenic call: inactive; negative
Test System: E.COLI, Strain/Indicator: WP2UVRA/PKM101, Metabolic Activation: RAT LIVER S-9, PHENOBARBITAL AND BETA-NAPHTHOFLAVONE, Method: PREINCUBATION
  mutagenic call: inactive; negative
Test System: E.COLI, Strain/Indicator: WP2UVRA, Metabolic Activation: NONE, Method: PREINCUBATION
  mutagenic call: inactive; negative
Test System: E.COLI, Strain/Indicator: WP2UVRA, Metabolic Activation: RAT LIVER S-9, PHENOBARBITAL AND BETA-NAPHTHOFLAVONE, Method: PREINCUBATION
  mutagenic call: inactive; negative
Test System: MOUSE LYMPHOMA, Strain/Indicator: L5178Y (TK+/TK-), Metabolic Activation: RAT, LIVER, S-9, AROCLOR 1254, Method: SUSPENSION /PLATE
  mutagenic call: active; positive
Test System: MOUSE LYMPHOMA, Strain/Indicator: L5178Y (TK+/TK-), Metabolic Activation: RAT, LIVER, S-9, AROCLOR 1254, Method: SUSPENSION/PLATE
  mutagenic call: active; positive. reevaluation of results: positive
Test System: MOUSE LYMPHOMA, Strain/Indicator: L5178Y (TK+/TK-), Metabolic Activation: RAT, LIVER, S-9, AROCLOR, Method: SUSPENSION/PLATE
  mutagenic call: inactive; negative
Test System: UDS RAT HEPATOCYTES, Strain/Indicator: THY INCORP, Metabolic Activation: NONE, Method: AUTORADIOGRAPHY
  mutagenic call: inactive; negative
Test System: UDS RODENT CELLS, Strain/Indicator: SHE CELL-MEDIATED, Metabolic Activation: NONE, Method: LIQUID SCINTILLATION COUNTING (THYMIDINE INCORPORATION)
  mutagenic call: inactive; negative
Test System: UDS RODENT HEPATOCYTES, Strain/Indicator: THY INCORP (NON-S-PHASE), Metabolic Activation: NONE, Method: AUTORADIOGRAPHY
  mutagenic call: inactive; negative
